In patent publication US9067938B2, “Pyrazolopyridinone derivatives as LPA receptor antagonists” (Merck Patent GmbH, priority 2010, dated 2015):

Key:
P2Y10-Gα16 = target: T1, P2Y10-Gα16 (Homo sapiens, UniProt O00398); details: induction of Ca2+ transients via P2Y10-Gα16; cited from earlier work
T1 construct: "P2Y10-Gα16"; fused on or other part: The promiscuous G-protein alpha subunit G alpha 16 (GNA15) is fused to the receptor; By the printed name order it probably sits at the C-terminus; It is a coupling handle and not part of the key
T1 sequence (O00398 whole entry, the tested form may be a part): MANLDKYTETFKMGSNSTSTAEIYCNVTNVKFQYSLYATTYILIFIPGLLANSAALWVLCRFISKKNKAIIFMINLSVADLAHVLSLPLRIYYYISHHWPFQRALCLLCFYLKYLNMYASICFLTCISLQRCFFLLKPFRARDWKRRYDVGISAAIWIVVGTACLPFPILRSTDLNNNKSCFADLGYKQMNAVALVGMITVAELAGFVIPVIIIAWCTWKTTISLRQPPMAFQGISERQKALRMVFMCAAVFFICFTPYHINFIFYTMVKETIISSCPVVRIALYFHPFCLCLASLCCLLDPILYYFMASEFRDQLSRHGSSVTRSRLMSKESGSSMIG

LPA2 receptor = LPA2 receptor (Homo sapiens, UniProt Q9HBW0); assay: LPA2R-calciumflux assay; type: cell-based; details: U2OS cells recombinant expressing LPA2R; LPA-induced intracellular calcium signal (FLIPR Tetra); 10 concentrations from 30 uM to 1 nM, 1% DMSO
LPA2 receptor, sequence (Q9HBW0 whole entry): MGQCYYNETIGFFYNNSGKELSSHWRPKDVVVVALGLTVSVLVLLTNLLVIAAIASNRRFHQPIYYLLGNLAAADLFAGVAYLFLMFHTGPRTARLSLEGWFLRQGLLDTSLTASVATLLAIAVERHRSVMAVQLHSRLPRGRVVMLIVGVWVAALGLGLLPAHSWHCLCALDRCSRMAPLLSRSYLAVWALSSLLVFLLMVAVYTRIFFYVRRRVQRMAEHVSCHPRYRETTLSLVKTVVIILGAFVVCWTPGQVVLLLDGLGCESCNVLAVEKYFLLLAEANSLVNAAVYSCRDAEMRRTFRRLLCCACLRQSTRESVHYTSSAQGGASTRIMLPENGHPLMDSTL
Description: Description of the LPA2R Assay
Cell Cultivation/Propagation
LPA2R-calciumflux Assay Protocol
The assay detects intra cellular calcium which is generated by cells upon activation of the LPA2 receptor by its ligand LPA. This transient calcium mobilisation can be monitored using a commercial calcium detection kit (e.g. from Molecular Devices). The main component of such a kit is a dye, which becomes fluorescent when calcium is present—a transient fluorescence signal after laddition of a ligand to a test well are the result. Readers like the FLIPR (from Molecular Devices) can be used to monitor such transient “Ca-flux” signals.
The signals are calculated according to peak maximum minus base line. Compounds which are antogonists of LPA lead to a decreased mobilisation of intracellular calcium and thus to a lower signal. The assay is performed in microplates (384 wells per plate).
The assay itself is run according to the following procedure: • 50 uL seed cells (10000 cells/well in DMEM buffer) • Incubate 24 h at 37° C., 10% CO2 • aspirate medium • 50 uL add calcium dye 1×HBSS/HEPES buffer • incubate 1 h at 37° C. (“loading”) • equilibrate 10 min at RT • 5 uL add compounds in HEPES buffer • shake 10 sec. @ 1000 rpm • incubate 15 min at RT • 20 uL add LPA (in the FLIPR Tetra) in KREBS-Puffer/BSA & measurement
The cells are seeded in DMEM buffer (DMEM, 10% FCS, 10 mM HEPES, 1% Pen/Strep).
Dye loading is done in HBSS/HEPES buffer (100 mL 10×HBSS+20 mL 1M HEPES+880 mL water, pH 7.4)
The LPA is added in Krebs/BSA buffer (120 mM NaCl, 5 mM KCl, 0.62 mM MgSO4, 1.8 mM CaCl2, 10 mM HEPES, 6 mM D(+)-Glucose, 0.2% BSA, pH 7.4).
The compounds are pre-diluted in HEPES buffer (20 mM, pH 7.4), whereby the final DMSO content in the assay is kept at 1%. The compounds are pre-diluted in order to generate dose response series on the microplates. The dose response series consist of 10 concentrations for each compound from 30 uM final to 1 nM final. From all compound wells the resulting signals are referred to control wells (located on each plate besides the compound wells) in terms of % activity.
[formula] From these % activity values—along with the corresponding compound concentrations—IC50 values are fitted for each compound using standard fitting programs such as Graphpad Prism. Here the method “log(inhibitor) vs. response—Variable slope” is used. Reader Settings (FLIPR Tetra) • ExcWLength:470—495 • Em.Wlength: 515—575 • Gain: 50 • Exp. Time: 0,4 • Exc.Intensity: 80 • READ with TF • First read interval: 1,00 s • Number of first reads: 240 • Reads before dispense: 10 • Second read interval: 1,00 s • Number of second reads: 0 • Save Images No

Molecule | IC50 (LPA2 receptor) [nM] | EC50 (P2Y10-Gα16) [nM]
Lysophosphatidic acid [LPA] |  | 130
CCCCCCCCCCCCC/C=C/[C@@H](O)[C@@H](N)COP(=O)(O)O [Compound S1P, sphingosine 1-phosphate] |  | 53

Continued, in another order:

IC50 (LPA2 receptor) [nM] | Molecule | EC50 (P2Y10-Gα16) [nM]
> 10000 | O=C1CC(O)(C(F)(F)F)c2c(-c3c[nH]c4ccccc34)n[nH]c2N1 (centres unmarked) [Compound 29, 4-Hydroxy-3-(1H-indol-3-yl)-4-trifluoromethyl-1,4,5,7-tetrahydro-pyrazolo[3,4-b]pyridin-6-one] | 
> 10000 | O=C1CC(O)(c2cc(C(F)(F)F)cc(C(F)(F)F)c2)c2c(-c3ccccc3)n[nH]c2N1 (centres unmarked) [Compound 35, 4-(3,5-Bis-trifluoromethyl-phenyl)-4-hydroxy-3-phenyl-1,4,5,7-tetrahydro-pyrazolo[3,4-b]pyridin-6-one] | 
> 10000 | Cn1nc(-c2ccccc2)c2c1NC(=O)CC2(O)C(F)(F)F (centres unmarked) [Compound 4, 4-Hydroxy-1-methyl-3-phenyl-4-trifluoromethyl-1,4,5,7-tetrahydro-pyrazolo[3,4-b]pyridin-6-one] | 
